Values of other authors as cited in patent publication US20230357868A1 (priority 2021, published 2023).

What was measured:
[1] = LAMP visualization reagent
[2] = system: potato spindle tuber viroid (PSTVd); conditions: LAMP reaction

Structure (SMILES) | Toxicity [1] | Effect on amplification [2]
O=S(=O)([O-])c1ccc2c(N=Nc3c(O)cc(S(=O)(=O)[O-])c4ccccc34)c(O)c(S(=O)(=O)[O-])cc2c1.[Na+].[Na+].[Na+] [Hydroxynaphthol blue (HNB)] | May cause eye irritation | None
O=P([O-])([O-])OP(=O)([O-])[O-].[Mg+2].[Mg+2] [Mg-pyrophosphate (Mg-PPi)] | – | None
CCCN(CCCN(C)C)c1cc(/C=C2/Sc3ccccc3N2C)c2ccccc2[n+]1-c1ccccc1 [SYBR Green I] | Mutation enhancer | Not inhibiting when used 0.5-1x
